From patent US12257243B2, “5-hydroxy-7-oxabicyclo[2.2.1]heptane-2-carboxamide derivatives for inducing chondrogenesis for treating joint damage” (NOVARTIS AG, priority 2018, dated 2025)
Like-named read-outs stand apart in the source and are kept apart here.

Target: ALP in normal human articular chondrocytes (NHACs)
Assay: Alkaline Phosphatase (ALP) activity assay (staining and quantitation) in NHACs, prevention of chondrocyte hypertrophy
Format: cell-based
Details: human IL-1 beta 10 ng/mL, 12 days; for IC50: Fast Blue RR staining, high content imaging, read-out: ALP in NHAC IC50; for ALP in NHAC (% Efficacy) / Emax: value in parentheses; for Emax: read-out: ALP in NHAC (% Efficacy)
How it was run: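 Hypertrophy readout: ALP staining (Fast Blue RR with naphthol AS-MX phosphate) plus Hoechst, imaged at 561 nm and/or quantified by high-content multiwavelength cell scoring. Before staining, NHACs (7,500/well, DMEM/10% FBS) were exposed to compound for 5 h, then cultured with 10 ng/mL IL-1β for 12 days at 37 °C.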

Row | SMILES | IC50 [µM] | ALP in NHAC (% Efficacy) [%] | IC50 (Chondrocyte, 288 h) [µM] | Emax (Chondrocyte, 288 h) [%]
1 | Cn1cc([C@H]2[C@H]3O[C@H](C[C@@H]3O)[C@@H]2C(=O)Nc2cc(C(F)(F)F)c(Cl)cn2)c(C(F)(F)F)n1 (single isomer, unassigned) [Example 36b, (1R 2R,3S,4R,5S)—N-(5-chloro-4-(trifluoromethyl)pyridin-2-yl)-5-hydroxy-3-(1-methyl-3-(trifluoromethyl)-1H-pyrazol-4-yl)-7-oxabicyclo[2.2.1]heptane-2-carboxamide or (1S,2S,3R,4S,5R)—N-(5-chloro-4-(trifluoromethyl)pyridin-2-yl)-5-hydroxy-3-(1-methyl-3-(trifluoromethyl)-1H-pyrazol-4-yl)-7-oxabicyclo[2.2.1]heptane-2-carboxamide] | 17 | 83 | – | –
2 | COc1cc([C@H]2[C@H]3O[C@H](C[C@@H]3O)[C@@H]2C(=O)Nc2cc(C(F)(F)F)ccn2)ccn1 (racemic) [Example 77, rac-(1R,2R,3S,4R,5)-5-hydroxy-3-(2-methoxypyridin-4-yl)-N-(4-(trifluoromethyl)pyridin-2-yl)-7-oxabicyclo[2.2.1]heptane-2-carboxamide] | – | – | 15 | 76
3 | Cc1cc(NC(=O)[C@@H]2[C@@H](c3cn(C(C)C)nc3C(F)(F)F)[C@H]3O[C@@H]2C[C@@H]3O)cc(C(F)(F)F)c1 (racemic) [Example 88, rac-(1R,2R,3S,4R,5S)-5-hydroxy-3-(1-isopropyl-3-(trifluoromethyl)-1H-pyrazol-4-yl)-N-(3-methyl-5-(trifluoromethyl)phenyl)-7-oxabicyclo[2.2.1]heptane-2-carboxamide] | – | – | > 30 | 20
4 | Cn1cc([C@H]2[C@H]3O[C@H](C[C@@H]3O)[C@@H]2C(=O)Nc2cccc(C(F)(F)F)c2)c(C(F)(F)F)n1 (single isomer, unassigned) [Example 32a, (1R,2R,3S,4R,5S)-5-hydroxy-3-(1-methyl-3-(trifluoromethyl)-1H-pyrazol-4-yl)-N-(3-(trifluoromethyl)phenyl)-7-oxabicyclo[2.2.1]heptane-2-carboxamide or (1S,2S,3R,4S,5R)-5-hydroxy-3-(1-methyl-3-(trifluoromethyl)-1H-pyrazol-4-yl)-N-(3-(trifluoromethyl)phenyl)-7-oxabicyclo[2.2.1]heptane-2-carboxamide] | 6.6 | 87 | – | –
5 | CCOc1ccc(NC(=O)[C@@H]2[C@@H](c3cccc(C(F)(F)F)c3)[C@H]3O[C@@H]2C[C@@H]3O)cc1C(F)(F)F (racemic) [Example 24, rac-(1R,2R,3S,4R,5S)—N-(4-ethoxy-3-trifluoromethyl)phenyl)-5-hydroxy-3-(3-(trifluoromethyl)phenyl)-7-oxabicyclo[2.2.1]heptane-2-carboxamide] | – | – | 14 | 108
6 | COc1ccc(NC(=O)[C@@H]2[C@@H](c3cn(C)nc3C(F)(F)F)[C@H]3O[C@@H]2C[C@@H]3O)cc1C(F)(F)F (racemic) [Example 31, rac-(1R,2R,3S,4R,5S)-5-hydroxy-N-(4-methoxy-3-(trifluoromethyl)phenyl)-3-(1-methyl-3-(trifluoromethyl)-1H-pyrazol-4-yl)-7-oxabicyclo[2.2.1]heptane-2-carboxamide] | – | – | 3.1 | 102
7 | N#Cc1ccc(NC(=O)[C@@H]2[C@@H](c3cccc(C(F)(F)F)c3)[C@H]3O[C@@H]2C[C@@H]3O)cc1C(F)(F)F (racemic) [Example 46, rac-(1R,2R,3S,4R,5S)—N-(4-cyano-3-trifluoromethyl)phenyl)-5-hydroxy-3-(3-(trifluoromethyl)phenyl)-7-oxabicyclo[2.2.1]heptane-2-carboxamide] | – | – | 14 | 50
8 | O=C(Nc1cc(C(F)(F)F)ccc1F)[C@@H]1[C@@H](c2cccc(C(F)(F)F)c2)[C@H]2O[C@@H]1C[C@@H]2O (racemic) [Example 1, rac-(1R,2R,3S,4R,5S)—N-(2-fluoro-5-(trifluoromethyl)phenyl)-5-hydroxy-3-(3-(trifluoromethylphenyl)-7-oxabicyclo[2.2.1]heptane-2-carboxamide] | – | – | 29 | 60
9 | CC(C)n1cc([C@H]2[C@H]3O[C@H](C[C@@H]3O)[C@@H]2C(=O)Nc2cc(C(F)(F)F)ccc2C#N)c(C(F)(F)F)n1 (racemic) [Example 84, rac-(1R,2R,3S,4R,5S)—N-(2-cyano-5-(trifluoromethyl)phenyl)-5-hydroxy-3-(1-isopropyl-3-(trifluoromethyl)-1H-pyrazol-4-yl)-7-oxabicyclo[2.2.1]heptane-2-carboxamide] | – | – | 0.29 | 86
10 | Cn1cc([C@H]2[C@H]3O[C@H](C[C@@H]3O)[C@@H]2C(=O)Nc2ccc(C(F)(F)F)c(Cl)c2)c(C(F)(F)F)n1 (racemic) [Example 58, rac-(1R,2R,3S,4R,5S)—N-(3-chloro-4-(trifluoromethyl)phenyl)-5-hydroxy-3-(1-methyl-3-(trifluoromethyl)-1H-pyrazol-4-yl)-7-oxabicyclo[2.2.1]heptane-2-carboxamide] | – | – | 10 | 102
11 | COc1cc([C@H]2[C@H]3O[C@H](C[C@@H]3O)[C@@H]2C(=O)Nc2ccc(C(F)(F)F)cc2)ccn1 (racemic) [Example 67, rac-(1R,2R,3S,4R,5S)-5-hydroxy-3-(2-methoxypyridin-4-yl)-N-(4-(trifluoromethyl)phenyl)-7-oxabicyclo[2.2.1]heptane-2-carboxamide] | – | – | > 30 | 27
12 | N#Cc1ccc(C(F)(F)F)cc1NC(=O)[C@@H]1[C@@H](c2cccc(C(F)(F)F)c2)[C@H]2O[C@@H]1C[C@@H]2O (single isomer, unassigned) [Example 48a, (1R,2R,3S,4R,5S)—N-(2-cyano-5-(trifluoromethyl)phenyl)-5-hydroxy-3-(3-(trifluoromethyl)phenyl)-7-oxabicyclo[2.2.1]heptane-2-carboxamide or (1S,2S,3R,4S,5R)—N-(2-cyano-5-(trifluoromethyl)phenyl)-5-hydroxy-3-(3-(trifluoromethyl)phenyl)-7-oxabicyclo[2.2.1]heptane-2-carboxamide] | 1.5 | 109 | – | –
13 | Cn1cc([C@H]2[C@H]3O[C@H](C[C@@H]3O)[C@@H]2C(=O)Nc2ccc(C(F)(F)F)c(F)c2)c(C(F)(F)F)n1 (racemic) [Example 55, rac-(1R,2R,3S,4R,5S)—N-(3-fluoro-4-(trifluoromethylphenyl)-5-hydroxy-3-(1-methyl-3-(trifluoromethyl)-1H-pyrazol-4-yl)-7-oxabicyclo[2.2.1]heptane-2-carboxamide] | – | – | 16 | 65
14 | Cn1cc([C@H]2[C@H]3O[C@H](C[C@@H]3O)[C@@H]2C(=O)Nc2cc(C(F)(F)F)ccn2)c(C(F)(F)F)n1 (single isomer, unassigned) [Example 38a, (1R,2R,3S,4R,5S)-5-hydroxy-3-(1-methyl-3-(trifluoromethyl)-1H-pyrazol-4-yl)-N-(4-(trifluoromethyl)pyridin-2-yl)-7-oxabicyclo[2.2.1]heptane-2-carboxamide or (1S,2S,3R,4S,5R)-5-hydroxy-3-(1-methyl-3-(trifluoromethyl)-1H-pyrazol-4-yl)-N-(4-(trifluoromethyl)pyridin-2-yl)-7-oxabicyclo[2.2.1]heptane-2-carboxamide] | 5.9 | 81 | – | –
15 | CC(C)n1cc([C@H]2[C@H]3O[C@H](C[C@@H]3O)[C@@H]2C(=O)Nc2cccc(C(F)(F)F)c2)c(C(F)(F)F)n1 (racemic) [Example 59, rac-(1R,2R,3S,4R,5S)-5-hydroxy-3-(1-isopropyl-3-(trifluoromethyl)-1H-pyrazol-4-yl)-N-(3-(trifluoromethyl)phenyl)-7-oxabicyclo[2.2.1]heptane-2-carboxamide] | – | – | 14 | 70
16 | CC(C)n1cc([C@H]2[C@H]3O[C@H](C[C@@H]3O)[C@@H]2C(=O)Nc2cc(C(F)(F)F)ccc2F)c(C(F)(F)F)n1 (racemic) [Example 85, rac-(1R,2R,3S,4R,5S)—N-(2-fluoro-5-(trifluoromethyl)phenyl)-5-hydroxy-3-(1-isopropyl-3-(trifluoromethyl-1H-pyrazol-4-yl-7-oxabicyclo[2.2.1]heptane-2-carboxamide] | – | – | > 30 | 44
17 | Cn1nc(C(F)(F)F)cc1[C@H]1[C@H]2O[C@H](C[C@@H]2O)[C@@H]1C(=O)Nc1cc(C(F)(F)F)ccc1C#N (single isomer, unassigned) [Example 72a, (1R,2R,3S,4R,5S)—N-(2-cyano-5-(trifluoromethyl)phenyl)-5-hydroxy-3-(1-methyl-3-(trifluoromethyl)-1H-pyrazol-5-yl)-7-oxabicyclo[2.2.1]heptane-2-carboxamide or (1S,2S,3R,4S,5R)—N-(2-cyano-5-(trifluoromethyl)phenyl)-5-hydroxy-3-(1-methyl-3-(trifluoromethyl)-1-pyrazol-5-yl)-7-oxabicyclo[2.2.1]heptane-2-carboxamide] | 3.1 | 107 | – | –
18 | O=C(Nc1ccc(C(F)(F)F)c(Cl)n1)[C@@H]1[C@@H](c2cccc(C(F)(F)F)c2)[C@H]2O[C@@H]1C[C@@H]2O (single isomer, unassigned) [Example 25a, (1R,2R,3S,4R,5S)—N-(6-chloro-5-(trifluoromethyl)pyridin-2-yl)-5-hydroxy-3-(3-(trifluoromethyl)phenyl)-7-oxabicyclo[2.2.1]heptane-2-carboxamide or (1S,2S,3R,4S,5R)—N-(6-chloro-5-(trifluoromethylpyridin-2-yl)-5-hydroxy-3-(3-(trifluoromethyl)phenyl)-7-oxabicyclo[2.2.1]heptane-2-carboxamide] | 0.55 | 89 | – | –
